Reference: ChEMBL document CHEMBL1201861, “Genomics of Drug Sensitity in Cancer screening data, Wellcome Trust Sanger Institute”
pIC50: −log10 of the molar value.

Legend:
Assay in all cases: cells
Details in all cases: Homo sapiens
DEL = assay type: functional, cell-based;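 note: growth inhibition of the human DEL cell line, read out with a cell viability assay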
Description: SANGER: Inhibition of human DEL cell growth in a cell viability assay.

DMS-114 = assay type: functional, cell-based
DOHH-2 = assay type: functional, cell-based;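 note: growth inhibition of human DOHH-2 cells, read out with a cell viability assay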
Description: SANGER: Inhibition of human DOHH-2 cell growth in a cell viability assay.

EKVX = assay type: functional, cell-based;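 note: growth inhibition of human EKVX cells, read out with a cell viability assay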
Description: SANGER: Inhibition of human EKVX cell growth in a cell viability assay.

ES4 = assay type: functional, cell-based;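 note: growth inhibition of human ES4 cells, read out by a cell viability assay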
Description: SANGER: Inhibition of human ES4 cell growth in a cell viability assay.

EW-1 = assay type: functional, cell-based
Description: SANGER: Inhibition of human EW-1 cell growth in a cell viability assay.

EW-13 = assay type: functional, cell-based;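 note: growth inhibition of EW-13 cells, read out with a cell viability assay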
Description: SANGER: Inhibition of human EW-13 cell growth in a cell viability assay.

EW-16 = assay type: functional, cell-based;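 note: growth inhibition of human EW-16 cells, read out as cell viability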
Description: SANGER: Inhibition of human EW-16 cell growth in a cell viability assay.

EW-18 = assay type: functional, cell-based;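 note: growth inhibition of EW-18 cells, read out by a cell viability assay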
Description: SANGER: Inhibition of human EW-18 cell growth in a cell viability assay.

GI-1 = assay type: functional, cell-based;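 note: growth inhibition of human GI-1 cells, measured with a cell viability readout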
Description: SANGER: Inhibition of human GI-1 cell growth in a cell viability assay.

GI-ME-N = assay type: functional, cell-based;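 note: growth inhibition of human GI-ME-N cells, read out with a cell viability assay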
Description: SANGER: Inhibition of human GI-ME-N cell growth in a cell viability assay.

HCC1187 = assay type: functional, cell-based;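 note: growth inhibition of HCC1187 cells, read out with a cell viability assay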
Description: SANGER: Inhibition of human HCC1187 cell growth in a cell viability assay.

HDLM-2 = assay type: functional, cell-based;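 note: cell viability assay measuring suppression of HDLM-2 proliferation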
Description: SANGER: Inhibition of human HDLM-2 cell growth in a cell viability assay.

HL-60 = assay type: functional, cell-based;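 note: growth inhibition of human HL-60 cells, read out with a cell viability assay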
Description: SANGER: Inhibition of human HL-60 cell growth in a cell viability assay.

HT-144 = assay type: functional, cell-based
Description: SANGER: Inhibition of human HT-144 cell growth in a cell viability assay.

IA-LM = assay type: functional, cell-based;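 note: cell viability assay measuring growth inhibition of human IA-LM cells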
Description: SANGER: Inhibition of human IA-LM cell growth in a cell viability assay.

JVM-3 = assay type: functional, cell-based;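 note: growth inhibition of human JVM-3 cells, read out with a cell viability assay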
Description: SANGER: Inhibition of human JVM-3 cell growth in a cell viability assay.

KARPAS-45 = assay type: functional, cell-based;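 note: inhibition of cell line growth, read out through a viability assay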
Description: SANGER: Inhibition of human KARPAS-45 cell growth in a cell viability assay.

KLE = assay type: functional, cell-based;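 note: growth inhibition of human KLE cells, read out with a cell viability assay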
Description: SANGER: Inhibition of human KLE cell growth in a cell viability assay.

KMOE-2 = assay type: functional, cell-based;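 note: growth inhibition of human KMOE-2 cells, read out with a cell viability assay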
Description: SANGER: Inhibition of human KMOE-2 cell growth in a cell viability assay.

KP-N-YS = assay type: functional, cell-based;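 note: cell viability assay measuring inhibition of cell line growth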
Description: SANGER: Inhibition of human KP-N-YS cell growth in a cell viability assay.

L-363 = assay type: functional, cell-based
Description: SANGER: Inhibition of human L-363 cell growth in a cell viability assay.

L-428 = assay type: functional, cell-based
Description: SANGER: Inhibition of human L-428 cell growth in a cell viability assay.

LAMA-84 = assay type: functional, cell-based;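 note: growth inhibition of LAMA-84 cells, read out with a cell viability assay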
Description: SANGER: Inhibition of human LAMA-84 cell growth in a cell viability assay.

LU-134-A = assay type: functional, cell-based
Description: SANGER: Inhibition of human LU-134-A cell growth in a cell viability assay.

MC116 = assay type: functional, cell-based;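 note: growth inhibition of MC116 cells, read out with a cell viability assay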
Description: SANGER: Inhibition of human MC116 cell growth in a cell viability assay.

MEG-01 = assay type: functional, cell-based;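 note: growth inhibition of MEG-01 cells, read out by a cell viability assay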
Description: SANGER: Inhibition of human MEG-01 cell growth in a cell viability assay.

MHH-NB-11 = assay type: functional, cell-based;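 note: growth inhibition of human MHH-NB-11 cells, read out by a cell viability assay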
Description: SANGER: Inhibition of human MHH-NB-11 cell growth in a cell viability assay.

MMAC-SF = assay type: functional, cell-based;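 note: growth inhibition of human MMAC-SF cells, read out with a cell viability assay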
Description: SANGER: Inhibition of human MMAC-SF cell growth in a cell viability assay.

MOLT-16 = assay type: functional, cell-based;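 note: growth inhibition of human MOLT-16 cells, read out with a cell viability assay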
Description: SANGER: Inhibition of human MOLT-16 cell growth in a cell viability assay.

MZ1-PC = assay type: functional, cell-based;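 note: cell viability assay measuring growth inhibition of human MZ1-PC cells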
Description: SANGER: Inhibition of human MZ1-PC cell growth in a cell viability assay.

MZ2-MEL = assay type: functional, cell-based;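 note: growth inhibition of MZ2-MEL cells read out with a cell viability assay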
Description: SANGER: Inhibition of human MZ2-MEL cell growth in a cell viability assay.

MZ7-mel = assay type: functional, cell-based;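 note: growth inhibition of human MZ7-mel cells, measured by a cell viability assay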
Description: SANGER: Inhibition of human MZ7-mel cell growth in a cell viability assay.

Mo = assay type: functional, cell-based
Description: SANGER: Inhibition of human Mo-T cell growth in a cell viability assay.

NB10 = assay type: functional, cell-based;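 note: growth inhibition of NB10 cells, read out by a cell viability assay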
Description: SANGER: Inhibition of human NB10 cell growth in a cell viability assay.

NB69 = assay type: functional, cell-based;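 note: growth inhibition of NB69 cells, determined by a cell viability assay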
Description: SANGER: Inhibition of human NB69 cell growth in a cell viability assay.

NCI-H1304 = assay type: functional, cell-based;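 note: growth inhibition of the cancer cell line, measured in a cell viability assay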
Description: SANGER: Inhibition of human NCI-H1304 cell growth in a cell viability assay.

NCI-H1395 = assay type: functional, cell-based;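 note: cell viability assay read-out quantifying reduced proliferation of human NCI-H1395 cells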
Description: SANGER: Inhibition of human NCI-H1395 cell growth in a cell viability assay.

NCI-H1581 = assay type: functional, cell-based;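 note: cell growth inhibition read out by a viability assay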
Description: SANGER: Inhibition of human NCI-H1581 cell growth in a cell viability assay.

NCI-H209 = assay type: functional, cell-based;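 note: growth inhibition of human NCI-H209 cells, measured by a cell viability assay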
Description: SANGER: Inhibition of human NCI-H209 cell growth in a cell viability assay.

NCI-H526 = assay type: functional, cell-based;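 note: growth inhibition of the human NCI-H526 cell line, measured by a cell viability assay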
Description: SANGER: Inhibition of human NCI-H526 cell growth in a cell viability assay.

NCI-H747 = assay type: functional, cell-based;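 note: growth inhibition of human NCI-H747 cells, read out by a cell viability assay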
Description: SANGER: Inhibition of human NCI-H747 cell growth in a cell viability assay.

SNU-5 = assay type: functional, cell-based;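 note: cell viability readout used to measure growth inhibition in human NCI-SNU-5 cells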
Description: SANGER: Inhibition of human NCI-SNU-5 cell growth in a cell viability assay.

NH-12 = assay type: functional, cell-based;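 note: growth inhibition of NH-12 cells, read out with a cell viability assay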
Description: SANGER: Inhibition of human NH-12 cell growth in a cell viability assay.

ONS-76 = assay type: functional, cell-based;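 note: growth inhibition of human ONS-76 cells, read out with a cell viability assay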
Description: SANGER: Inhibition of human ONS-76 cell growth in a cell viability assay.

OVCAR-4 = assay type: functional, cell-based;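 note: growth inhibition of human OVCAR-4 cells, measured with a cell viability assay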
Description: SANGER: Inhibition of human OVCAR-4 cell growth in a cell viability assay.

RKO = assay type: functional, cell-based;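 note: growth inhibition of human RKO cells, read out with a cell viability assay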
Description: SANGER: Inhibition of human RKO cell growth in a cell viability assay.

Ramos-2G6-4C10 = assay type: functional, cell-based;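 note: growth inhibition of the cell line, measured by a cell viability read-out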
Description: SANGER: Inhibition of human Ramos-2G6-4C10 cell growth in a cell viability assay.

SF-539 = assay type: functional, cell-based;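 note: Read-out is a cell viability assay, with IC50 reflecting inhibition of cell growth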
Description: SANGER: Inhibition of human SF539 cell growth in a cell viability assay.

SJSA-1 = assay type: functional, cell-based;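 note: growth inhibition of human SJSA-1 cells, read out through a cell viability measurement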
Description: SANGER: Inhibition of human SJSA-1 cell growth in a cell viability assay.

SK-MEL-1 = assay type: functional, cell-based;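 note: growth inhibition of human SK-MEL-1 cells, read out by a cell viability assay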
Description: SANGER: Inhibition of human SK-MEL-1 cell growth in a cell viability assay.

SK-N-FI = assay type: functional, cell-based;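 note: cell viability assay measuring growth inhibition of human SK-N-FI cells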
Description: SANGER: Inhibition of human SK-N-FI cell growth in a cell viability assay.

SK-NEP-1 = assay type: functional, cell-based;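 note: growth inhibition of human SK-NEP-1 cells, read out by a cell viability assay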
Description: SANGER: Inhibition of human SK-NEP-1 cell growth in a cell viability assay.

SK-PN-DW = assay type: functional, cell-based;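 note: growth inhibition measured with a viability assay on these cells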
Description: SANGER: Inhibition of human SK-PN-DW cell growth in a cell viability assay.

A101D = assay type: functional, cell-based;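 note: growth inhibition of the cell line, measured with a viability assay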
Description: SANGER: Inhibition of human A101D cell growth in a cell viability assay.

A388 = assay type: functional, cell-based;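 note: growth inhibition of human A388 cells, read out with a cell viability assay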
Description: SANGER: Inhibition of human A388 cell growth in a cell viability assay.

ATN-1 = assay type: functional, cell-based
Description: SANGER: Inhibition of human ATN-1 cell growth in a cell viability assay.

BB30-HNC = assay type: functional, cell-based
Description: SANGER: Inhibition of human BB30-HNC cell growth in a cell viability assay.

Becker = assay type: functional, cell-based
Description: SANGER: Inhibition of human Becker cell growth in a cell viability assay.

TE-10 = assay type: functional, cell-based
Description: SANGER: Inhibition of human TE-10 cell growth in a cell viability assay.

TE-6 = assay type: functional, cell-based
Description: SANGER: Inhibition of human TE-6 cell growth in a cell viability assay.

TGBC24TKB = assay type: functional, cell-based
Description: SANGER: Inhibition of human TGBC24TKB cell growth in a cell viability assay.

U-87 MG = assay type: functional, cell-based, U-87MG ATCC
Description: SANGER: Inhibition of human U-87-MG cell growth in a cell viability assay.

UACC-257 = assay type: functional, cell-based
Description: SANGER: Inhibition of human UACC-257 cell growth in a cell viability assay.

CAS-1 = assay type: functional, cell-based
Description: SANGER: Inhibition of human CAS-1 cell growth in a cell viability assay.

COLO-320-HSR = assay type: functional, cell-based
Description: SANGER: Inhibition of human COLO-320-HSR cell growth in a cell viability assay.

Q: What does the source list for `CC(O)(CS(=O)(=O)c1ccc(F)cc1)C(=O)Nc1ccc(C#N)c(C(F)(F)F)c1` (configuration not stated) [BICALUTAMIDE]?
A: pIC50 (DEL): < 5.99; pIC50 (DMS-114): < 5.99; pIC50 (DOHH-2): < 5.99; pIC50 (EKVX): < 5.99; pIC50 (ES4): < 5.99; pIC50 (EW-1): < 5.99; pIC50 (EW-13): < 5.99; pIC50 (EW-16): < 5.99; pIC50 (EW-18): < 5.99; pIC50 (GI-1): < 5.99; pIC50 (GI-ME-N): < 5.99; pIC50 (HCC1187): < 5.99; pIC50 (HDLM-2): < 5.99; pIC50 (HL-60): < 5.99; pIC50 (HT-144): < 5.99; pIC50 (IA-LM): < 5.99; pIC50 (JVM-3): < 5.99; pIC50 (KARPAS-45): < 5.99; pIC50 (KLE): < 5.99; pIC50 (KMOE-2): < 5.99; pIC50 (KP-N-YS): < 5.99; pIC50 (L-363): < 5.99; pIC50 (L-428): < 5.99; pIC50 (LAMA-84): < 5.99; pIC50 (LU-134-A): < 5.99; pIC50 (MC116): < 5.99; pIC50 (MEG-01): < 5.99; pIC50 (MHH-NB-11): < 5.99; pIC50 (MMAC-SF): < 5.99; pIC50 (MOLT-16): < 5.99; pIC50 (MZ1-PC): < 5.99; pIC50 (MZ2-MEL): < 5.99; pIC50 (MZ7-mel): < 5.99; pIC50 (Mo): < 5.99; pIC50 (NB10): < 5.99; pIC50 (NB69): < 5.99; pIC50 (NCI-H1304): < 5.99; pIC50 (NCI-H1395): < 5.99; pIC50 (NCI-H1581): < 5.99; pIC50 (NCI-H209): < 5.99; pIC50 (NCI-H526): < 5.99; pIC50 (NCI-H747): < 5.99; pIC50 (SNU-5): < 5.99; pIC50 (NH-12): < 5.99; pIC50 (ONS-76): < 5.99; pIC50 (OVCAR-4): < 5.99; pIC50 (RKO): < 5.99; pIC50 (Ramos-2G6-4C10): < 5.99; pIC50 (SF-539): < 5.99; pIC50 (SJSA-1): < 5.99; pIC50 (SK-MEL-1): < 5.99; pIC50 (SK-N-FI): < 5.99; pIC50 (SK-NEP-1): < 5.99; pIC50 (SK-PN-DW): < 5.99; pIC50 (A101D): < 5.99; pIC50 (A388): < 5.99; pIC50 (ATN-1): < 5.99; pIC50 (BB30-HNC): < 5.99; pIC50 (Becker): < 5.99; pIC50 (TE-10): < 5.99; pIC50 (TE-6): < 5.99; pIC50 (TGBC24TKB): < 5.99; pIC50 (U-87 MG): < 5.99; pIC50 (UACC-257): < 5.99; pIC50 (CAS-1): < 5.99; pIC50 (COLO-320-HSR): < 5.99

Q: How did the pIC50 (DEL) turn out when `COc1cc(C)c(Sc2cnc(NC(=O)c3ccc(CNC(C)C(C)(C)C)cc3)s2)cc1C(=O)N1CCN(C(C)=O)CC1` (configuration not stated) was run?
A: < 4.99

Q: What about the pIC50 (DMS-114) of the same molecule?
A: < 4.99

Q: What about the pIC50 (DOHH-2) of the same molecule?
A: < 4.99

Q: What about the pIC50 (EKVX) of the same molecule?
A: < 4.99

Q: And the pIC50 (ES4)?
A: 5.18

Q: What about the pIC50 (EW-1) of the same molecule?
A: 5.51

Q: And the pIC50 (EW-13)?
A: < 4.99

Q: What about the pIC50 (EW-16) of the same molecule?
A: 5.76

Q: What about the pIC50 (EW-18) of the same molecule?
A: < 4.99

Q: What about the pIC50 (GI-1) of the same molecule?
A: < 4.99

Q: And the pIC50 (GI-ME-N)?
A: 5.37

Q: And the pIC50 (HCC1187)?
A: < 4.99

Q: What about the pIC50 (HDLM-2) of the same molecule?
A: < 4.99

Q: What about the pIC50 (HL-60) of the same molecule?
A: < 4.99

Q: What about the pIC50 (HT-144) of the same molecule?
A: 5.48

Q: And the pIC50 (IA-LM)?
A: 5.27

Q: What about the pIC50 (JVM-3) of the same molecule?
A: < 4.99

Q: What about the pIC50 (KARPAS-45) of the same molecule?
A: < 4.99

Q: And the pIC50 (KLE)?
A: < 4.99

Q: And the pIC50 (KMOE-2)?
A: < 4.99

Q: And the pIC50 (KP-N-YS)?
A: < 4.99

Q: What about the pIC50 (L-363) of the same molecule?
A: 5.31

Q: What about the pIC50 (L-428) of the same molecule?
A: < 4.99

Q: What about the pIC50 (LAMA-84) of the same molecule?
A: < 4.99

Q: And the pIC50 (LU-134-A)?
A: < 4.99

Q: And the pIC50 (MC116)?
A: < 4.99

Q: And the pIC50 (MEG-01)?
A: < 4.99

Q: And the pIC50 (MHH-NB-11)?
A: < 4.99

Q: What about the pIC50 (MMAC-SF) of the same molecule?
A: < 4.99

Q: And the pIC50 (MOLT-16)?
A: 5.32

Q: What about the pIC50 (MZ1-PC) of the same molecule?
A: 5.42

Q: And the pIC50 (MZ2-MEL)?
A: 5.18

Q: What about the pIC50 (MZ7-mel) of the same molecule?
A: < 4.99

Q: And the pIC50 (Mo)?
A: < 4.99

Q: What about the pIC50 (NB10) of the same molecule?
A: < 4.99

Q: And the pIC50 (NB69)?
A: 5.18

Q: And the pIC50 (NCI-H1304)?
A: < 4.99

Q: And the pIC50 (NCI-H1395)?
A: < 4.99

Q: What about the pIC50 (NCI-H1581) of the same molecule?
A: < 4.99

Q: And the pIC50 (NCI-H209)?
A: < 4.99

Q: What about the pIC50 (NCI-H526) of the same molecule?
A: < 4.99

Q: And the pIC50 (NCI-H747)?
A: 5.41

Q: What about the pIC50 (SNU-5) of the same molecule?
A: < 4.99

Q: And the pIC50 (NH-12)?
A: < 4.99

Q: And the pIC50 (ONS-76)?
A: < 4.99

Q: And the pIC50 (OVCAR-4)?
A: 5.02

Q: And the pIC50 (RKO)?
A: 5.05

Q: What about the pIC50 (Ramos-2G6-4C10) of the same molecule?
A: < 4.99

Q: What about the pIC50 (SF-539) of the same molecule?
A: < 4.99

Q: And the pIC50 (SJSA-1)?
A: 5.12

Q: What about the pIC50 (SK-MEL-1) of the same molecule?
A: < 4.99

Q: What about the pIC50 (SK-N-FI) of the same molecule?
A: < 4.99

Q: What about the pIC50 (SK-NEP-1) of the same molecule?
A: < 4.99

Q: And the pIC50 (SK-PN-DW)?
A: 4.99

Q: What about the pIC50 (A101D) of the same molecule?
A: 5.32

Q: What about the pIC50 (A388) of the same molecule?
A: < 4.99

Q: And the pIC50 (ATN-1)?
A: 5.02

Q: And the pIC50 (BB30-HNC)?
A: 5.03

Q: And the pIC50 (Becker)?
A: < 4.99

Q: What about the pIC50 (TE-10) of the same molecule?
A: < 4.99

Q: What about the pIC50 (TE-6) of the same molecule?
A: < 4.99

Q: And the pIC50 (TGBC24TKB)?
A: < 4.99

Q: What about the pIC50 (U-87 MG) of the same molecule?
A: < 4.99

Q: What about the pIC50 (UACC-257) of the same molecule?
A: < 4.99

Q: And the pIC50 (CAS-1)?
A: < 4.99

Q: And the pIC50 (COLO-320-HSR)?
A: < 4.99
